Reference: paper PMC12521730, “Quantitative dual-isotope preclinical SPECT/CT imaging and biodistribution of the mercury-197m/g theranostic pair with [^197m/gHg]HgCl2 and a [^197m/gHg]Hg-tetrathiol complex as a platform for radiopharmaceutical development” (EJNMMI Radiopharmacy and Chemistry, 2025)

Experiment: Ex vivo biodistribution (gamma counter)
Format: in vivo, healthy male C57BL/6 mice
Settings: 2 h post administration
Procedure: For animal injection, the tracer was prepared at high molar activity. Radiolabeling of H4Tetrathiol (10^–2 M in DMSO; 40 μL for imaging, 20 μL for bioD) (or DMSO, for [^197m/gHg]HgCl2 mice) with [^197m/gHg]HgCl2 (imaging: 26.7 MBq total m + g, 62 μL; bioD: 13.04 MBq total m + g, 31 μL) was performed in a mixture of ammonium acetate buffer (1 M; pH 7; 198 μL for imaging or 149 μL for bioD) and 6 M NaOH (72 μL or 38 μL required to achieve a pH of 7.5 after addition of activity, for imaging or BioD labeling, respectively). The reaction was allowed to stand for 1 h at 37 °C and quantitative (> 99%) non-isolated percentage radiochemical yield (%RCY) was confirmed via the iTLC methods mentioned above. Further, 100 µL of the reaction was diluted with 50 µL of PBS Tween-20 (0.01 M sodium phosphate, 0.15 M NaCl, 0.05% Tween-20) for imaging mice, or 50 µL of the reaction was diluted with 100 µL of PBS Tween-20 for BioD mice. The tracers were prepared immediately before injection to avoid radiolysis and minimize the tracer loss to any surfaces due to its lipophilicity. The injected doses of each isomer, ^197mHg and ^197gHg, were quantified by measuring an aliquot of known volume of each tracer preparation via HPGe gamma spectroscopy and decay corrected for time of injection using the Eqs. (1) and (2).
The study was conducted in compliance with the guidelines set by the Canadian Council on Animal Care (CCAC) and approved by the Animal Care Committee (ACC) at the University of British Columbia (A20-0132). A total of eight healthy male C57BL/6 mice weighing approximately 30 g for group 1 and 25 g for group 2 were used in the study. The mice were divided into two experimental groups: group 1 (n = 4) received free [^197m/gHg]HgCl2, while group 2 (n = 4) received [^197m/gHg]Hg-Tetrathiol. Within each group, one mouse was allocated for imaging, while the rest were designated for ex vivo biodistribution analysis. For SPECT imaging, the designated mice were anesthetized using isoflurane via a precision vaporizer. […] Once anesthetized, each imaging mouse received an intravenous (IV) injection via the lateral tail vein of 150 μL of [^197m/gHg]HgCl2 (0.492 MBq ^197mHg + 3.171 MBq ^197gHg) or [^197m/gHg]Hg-Tetrathiol (0.899 MBq ^197mHg + 4.230 MBq ^197gHg) in PBS Tween-20 (0.01 M Na Phosphate, 0.15 M NaCl, 0.05% Tween-20).
Mice received an IV injection of [^197m/gHg]HgCl2 (0.275 MBq ^197mHg + 1.758 MBq ^197gHg, 150 μL) or [^197m/gHg]Hg-Tetrathiol (0.384 MBq ^197mHg + 1.733 MBq ^197gHg, 150 μL) (n = 3 per group) via the lateral tail vein using a Tailveiner restrainer. After the injection, the mice were returned to their experimental cages and allowed unrestricted movement. Biodistribution studies were conducted 2 h after administration. Mice were humanely euthanized with an overdose of isoflurane followed by cardiac puncture to collect blood pool activity. The organs of interest were fully extracted, cleaned of blood without rinsing, weighed, and analysed for radioactivity using a calibrated gamma counter with the 55–93 keV energy window for ^197gHg and the 110–160 keV energy window for ^197mHg (Packard Cobra II, Perkin Elmer, Waltham, MA, USA). The stomach and intestines were carefully cleaned prior to analysis to remove residual contents. For tissues and fluids that could not be fully removed (muscle, blood and bone) activity values were extrapolated based on standardised organ weights for age- and sex-matched mice tables to ensure accurate normalization (Davies and Morris [1993]; Foster et al. [2014]). The stomach and whole intestines were cleaned before analysis. The radioactivity measurements were decay corrected for time of injection using the Eqs. (1) and (2). The results are reported as the percentage of the injected activity per gram of tissue (%IA/g) and percentage of the injected activity per tissue (%IA/organ).

Compound: [Cl][Hg][Cl] [[^197m/gHg]HgCl2]
- Animal 4 (%IA/g) g: kidneys (Hg-197g): 120 %IA/g
- Animal 4 (%IA/g) g: large intestine (Hg-197g): 2.62 %IA/g
- Animal 4 (%IA/g) g: liver (Hg-197g): 4.99 %IA/g
- Animal 4 (%IA/g) g: lungs (Hg-197g): 3.08 %IA/g
- Animal 4 (%IA/g) g: muscle (Hg-197g): 0.53 %IA/g
- Animal 4 (%IA/g) g: pancreas (Hg-197g): 1.46 %IA/g
- Animal 4 (%IA/g) g: small intestine (Hg-197g): 2.62 %IA/g
- Animal 4 (%IA/g) g: spleen (Hg-197g): 3.58 %IA/g
- Animal 4 (%IA/g) g: stomach (Hg-197g): 1.76 %IA/g
- Animal 4 (%IA/g) g: tail (Hg-197g): 3.76 %IA/g
- Animal 4 (%IA/g) g: urine (Hg-197g): 3.49 %IA/g
- Average (%IA/Organ): bladder (Hg-197g): 0.06 %IA/Organ
- Average (%IA/Organ): blood (Hg-197g): 5.81 %IA/Organ
- Average (%IA/Organ): bone (Hg-197g): 4.16 %IA/Organ
- Average (%IA/Organ): brain (Hg-197g): 0.05 %IA/Organ
- Average (%IA/Organ): feces (Hg-197g): 0.05 %IA/Organ
- Average (%IA/Organ): heart (Hg-197g): 0.25 %IA/Organ
- Average (%IA/Organ): kidneys (Hg-197g): 48.31 %IA/Organ
- Average (%IA/Organ): large intestine (Hg-197g): 0.57 %IA/Organ
- Average (%IA/Organ): liver (Hg-197g): 7.78 %IA/Organ
- Average (%IA/Organ): lungs (Hg-197g): 0.58 %IA/Organ
- Average (%IA/Organ): muscle (Hg-197g): 8.08 %IA/Organ
- Average (%IA/Organ): pancreas (Hg-197g): 0.25 %IA/Organ
- Average (%IA/Organ): small intestine (Hg-197g): 0.70 %IA/Organ
- Average (%IA/Organ): spleen (Hg-197g): 0.31 %IA/Organ
- Average (%IA/Organ): stomach (Hg-197g): 0.20 %IA/Organ
- Average (%IA/Organ): tail (Hg-197g): 2.59 %IA/Organ
- Average (%IA/Organ): urine (Hg-197g): 0.65 %IA/Organ
- Average Hg-197g (%IA/g): bladder (Hg-197g): 2.10 %IA/g
- Average Hg-197g (%IA/g): blood (Hg-197g): 3.53 %IA/g
- Average Hg-197g (%IA/g): bone (Hg-197g): 1.94 %IA/g
- Average Hg-197g (%IA/g): brain (Hg-197g): 0.13 %IA/g
- Average Hg-197g (%IA/g): feces (Hg-197g): 1.29 %IA/g
- Average Hg-197g (%IA/g): heart (Hg-197g): 1.79 %IA/g
- Average Hg-197g (%IA/g): kidneys (Hg-197g): 111.17 %IA/g
- Average Hg-197g (%IA/g): large intestine (Hg-197g): 2.77 %IA/g
- Average Hg-197g (%IA/g): liver (Hg-197g): 5.03 %IA/g
- Average Hg-197g (%IA/g): lungs (Hg-197g): 3.83 %IA/g
- Average Hg-197g (%IA/g): muscle (Hg-197g): 0.63 %IA/g
- Average Hg-197g (%IA/g): pancreas (Hg-197g): 1.48 %IA/g
- Average Hg-197g (%IA/g): small intestine (Hg-197g): 3.17 %IA/g
- Average Hg-197g (%IA/g): spleen (Hg-197g): 3.93 %IA/g
- Average Hg-197g (%IA/g): stomach (Hg-197g): 1.87 %IA/g
- Average Hg-197g (%IA/g): tail (Hg-197g): 5.12 %IA/g
- Average Hg-197g (%IA/g): urine (Hg-197g): 4.08 %IA/g
- Animal 1 (%IA/g) m: bladder (Hg-197m): 1.81 %IA/g
- Animal 1 (%IA/g) m: blood (Hg-197m): 8.43 %IA/g
- Animal 1 (%IA/g) m: bone (Hg-197m): 3.43 %IA/g
- Animal 1 (%IA/g) m: brain (Hg-197m): 0.27 %IA/g
- Animal 1 (%IA/g) m: feces (Hg-197m): 1.31 %IA/g
- Animal 1 (%IA/g) m: heart (Hg-197m): 3.85 %IA/g
- Animal 1 (%IA/g) m: large intestine (Hg-197m): 5.33 %IA/g
- Animal 1 (%IA/g) m: lungs (Hg-197m): 8.68 %IA/g
- Animal 1 (%IA/g) m: muscle (Hg-197m): 1.38 %IA/g
- Animal 1 (%IA/g) m: pancreas (Hg-197m): 2.69 %IA/g
- Animal 1 (%IA/g) m: small intestine (Hg-197m): 6.99 %IA/g
- Animal 1 (%IA/g) m: spleen (Hg-197m): 8.59 %IA/g
- Animal 1 (%IA/g) m: stomach (Hg-197m): 3.64 %IA/g
- Animal 1 (%IA/g) m: tail (Hg-197m): 16.30 %IA/g
- Animal 1 (%IA/g) m: urine (Hg-197m): 8.15 %IA/g
- Animal 2 (%IA/g) m: bladder (Hg-197m): 4.08 %IA/g
- Animal 2 (%IA/g) m: blood (Hg-197m): 5.94 %IA/g
- Animal 2 (%IA/g) m: bone (Hg-197m): 2.79 %IA/g
- Animal 2 (%IA/g) m: brain (Hg-197m): 0.15 %IA/g
- Animal 2 (%IA/g) m: feces (Hg-197m): 0.59 %IA/g
- Animal 2 (%IA/g) m: heart (Hg-197m): 2.24 %IA/g
- Animal 2 (%IA/g) m: large intestine (Hg-197m): 3.94 %IA/g
- Animal 2 (%IA/g) m: liver (Hg-197m): 10.33 %IA/g
- Animal 2 (%IA/g) m: lungs (Hg-197m): 4.50 %IA/g
- Animal 2 (%IA/g) m: muscle (Hg-197m): 0.74 %IA/g
- Animal 2 (%IA/g) m: pancreas (Hg-197m): 1.94 %IA/g
- Animal 2 (%IA/g) m: small intestine (Hg-197m): 4.20 %IA/g
- Animal 2 (%IA/g) m: spleen (Hg-197m): 4.74 %IA/g
- Animal 2 (%IA/g) m: stomach (Hg-197m): 2.42 %IA/g
- Animal 2 (%IA/g) m: tail (Hg-197m): 7.26 %IA/g
- Animal 2 (%IA/g) m: urine (Hg-197m): 5.31 %IA/g
- Animal 3 (%IA/g) m: bladder (Hg-197m): 2.14 %IA/g
- Animal 3 (%IA/g) m: blood (Hg-197m): 5.50 %IA/g
- Animal 3 (%IA/g) m: bone (Hg-197m): 2.67 %IA/g
- Animal 3 (%IA/g) m: brain (Hg-197m): 0.17 %IA/g
- Animal 3 (%IA/g) m: feces (Hg-197m): 3.93 %IA/g
- Animal 3 (%IA/g) m: heart (Hg-197m): 2.10 %IA/g
- Animal 3 (%IA/g) m: large intestine (Hg-197m): 3.68 %IA/g
- Animal 3 (%IA/g) m: liver (Hg-197m): 10.14 %IA/g
- Animal 3 (%IA/g) m: lungs (Hg-197m): 5.07 %IA/g
- Animal 3 (%IA/g) m: muscle (Hg-197m): 0.79 %IA/g
- Animal 3 (%IA/g) m: pancreas (Hg-197m): 2.04 %IA/g
- Animal 3 (%IA/g) m: small intestine (Hg-197m): 4.50 %IA/g
- Animal 3 (%IA/g) m: spleen (Hg-197m): 4.18 %IA/g
- Animal 3 (%IA/g) m: stomach (Hg-197m): 2.28 %IA/g
- Animal 3 (%IA/g) m: tail (Hg-197m): 7.21 %IA/g
- Animal 3 (%IA/g) m: urine (Hg-197m): 5.63 %IA/g
- Animal 4 (%IA/g) m: bladder (Hg-197m): 4.20 %IA/g
- Animal 4 (%IA/g) m: blood (Hg-197m): 4.96 %IA/g
- Animal 4 (%IA/g) m: bone (Hg-197m): 2.78 %IA/g
- Animal 4 (%IA/g) m: brain (Hg-197m): 0.17 %IA/g
- Animal 4 (%IA/g) m: feces (Hg-197m): 1.53 %IA/g
- Animal 4 (%IA/g) m: heart (Hg-197m): 2.14 %IA/g
- Animal 4 (%IA/g) m: large intestine (Hg-197m): 3.97 %IA/g
- Animal 4 (%IA/g) m: liver (Hg-197m): 10.31 %IA/g
- Animal 4 (%IA/g) m: lungs (Hg-197m): 4.53 %IA/g
- Animal 4 (%IA/g) m: muscle (Hg-197m): 0.81 %IA/g
- Animal 4 (%IA/g) m: pancreas (Hg-197m): 2.24 %IA/g
- Animal 4 (%IA/g) m: small intestine (Hg-197m): 3.96 %IA/g
- Animal 4 (%IA/g) m: spleen (Hg-197m): 5.42 %IA/g
- Animal 4 (%IA/g) m: stomach (Hg-197m): 2.56 %IA/g
- Animal 4 (%IA/g) m: tail (Hg-197m): 5.98 %IA/g
- Animal 4 (%IA/g) m: urine (Hg-197m): 5.02 %IA/g
- Average Hg-197m (%IA/g): bladder (Hg-197m): 3.06 %IA/g
- Average Hg-197m (%IA/g): blood (Hg-197m): 6.21 %IA/g
- Average Hg-197m (%IA/g): bone (Hg-197m): 2.92 %IA/g
- Average Hg-197m (%IA/g): brain (Hg-197m): 0.19 %IA/g
- Average Hg-197m (%IA/g): feces (Hg-197m): 1.84 %IA/g
- Average Hg-197m (%IA/g): heart (Hg-197m): 2.58 %IA/g
- Average Hg-197m (%IA/g): large intestine (Hg-197m): 4.23 %IA/g
- Average Hg-197m (%IA/g): liver (Hg-197m): 10.26 %IA/g
- Average Hg-197m (%IA/g): lungs (Hg-197m): 5.70 %IA/g
- Average Hg-197m (%IA/g): muscle (Hg-197m): 0.93 %IA/g
- Average Hg-197m (%IA/g): pancreas (Hg-197m): 2.23 %IA/g
- Average Hg-197m (%IA/g): small intestine (Hg-197m): 4.92 %IA/g
- Average Hg-197m (%IA/g): spleen (Hg-197m): 5.73 %IA/g
- Average Hg-197m (%IA/g): stomach (Hg-197m): 2.72 %IA/g
- Average Hg-197m (%IA/g): tail (Hg-197m): 9.19 %IA/g
- Average Hg-197m (%IA/g): urine (Hg-197m): 6.03 %IA/g
